# The source made the active and inactive calls.
# How the values were obtained:
# Beta-galactosidase = Beta-galactosidase (Escherichia coli, UniProt Q8VNN2); assay: Dose response counterscreen for EBI2 assay utilizing the enzyme, b-galactosidase.; format: functional
# cells [1] = format: functional, cell-based
# cells [2] = format: functional, cell-based; remark: listed apart in the source
# [3] = molecular target: T1, Trace amine-associated receptor 1 (Homo sapiens, UniProt Q96RJ0); assay: Counterscreen for agonists of the human trace amine associated receptor 1 (hTAAR1): Fluorescence-based cell-based high throughput dose response assay to identify hTAAR1 agonist that also desensitize TAAR1 receptor response.; format: functional
# T1 sequence (Q96RJ0 whole entry): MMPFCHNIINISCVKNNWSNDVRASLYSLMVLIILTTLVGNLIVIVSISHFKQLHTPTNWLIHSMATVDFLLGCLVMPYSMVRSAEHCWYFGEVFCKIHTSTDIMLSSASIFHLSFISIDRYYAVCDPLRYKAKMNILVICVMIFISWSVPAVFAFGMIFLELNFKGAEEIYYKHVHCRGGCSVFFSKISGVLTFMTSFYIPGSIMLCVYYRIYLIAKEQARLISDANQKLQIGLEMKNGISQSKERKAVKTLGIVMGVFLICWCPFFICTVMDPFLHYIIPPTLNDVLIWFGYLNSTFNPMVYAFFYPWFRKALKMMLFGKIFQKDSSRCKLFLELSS
# [4] = molecular target: T1, Trace amine-associated receptor 1; assay: Fluorescence-based cell-based high throughput dose response assay to identify agonists of the human trace amine associated receptor 1 (TAAR1).; format: functional
# Caspase-6 = molecular target: T2, Caspase-6 (Homo sapiens, UniProt P55212); assay: human caspase-6 inhibitors, dose response, biochemical, VEID-R110 fluorescence, cherry-pick (AID 720632)
# T2 sequence (P55212 whole entry): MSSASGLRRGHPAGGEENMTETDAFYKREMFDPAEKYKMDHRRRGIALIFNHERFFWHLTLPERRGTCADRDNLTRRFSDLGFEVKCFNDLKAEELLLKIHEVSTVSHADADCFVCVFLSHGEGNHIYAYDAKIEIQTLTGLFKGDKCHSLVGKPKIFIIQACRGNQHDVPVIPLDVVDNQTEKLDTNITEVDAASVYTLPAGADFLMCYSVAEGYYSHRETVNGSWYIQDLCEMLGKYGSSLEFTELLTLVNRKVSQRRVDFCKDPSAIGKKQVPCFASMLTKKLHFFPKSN
# [5] = molecular target: T3, Small ubiquitin-related modifier 1 (Homo sapiens, UniProt P63165); assay: inhibitors of SUMO1 peptide binding, dose response, biochemical, fluorescence polarization, uHTS hits (AID 624382); format: functional; details: read-out: IC50_Mean
# [6] = molecular target: T4, RNA-binding protein pos-1 (Caenorhabditis elegans, UniProt G5EF15); assay: inhibitors of POS-1/mex-3 RNA binding, dose response, biochemical, fluorescence polarization (AID 1964);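 also: purified POS-1 fused to maltose binding protein made in E. coli; potency of compounds blocking POS-1 binding to fluorescent RNA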
# T4 sequence (G5EF15 whole entry): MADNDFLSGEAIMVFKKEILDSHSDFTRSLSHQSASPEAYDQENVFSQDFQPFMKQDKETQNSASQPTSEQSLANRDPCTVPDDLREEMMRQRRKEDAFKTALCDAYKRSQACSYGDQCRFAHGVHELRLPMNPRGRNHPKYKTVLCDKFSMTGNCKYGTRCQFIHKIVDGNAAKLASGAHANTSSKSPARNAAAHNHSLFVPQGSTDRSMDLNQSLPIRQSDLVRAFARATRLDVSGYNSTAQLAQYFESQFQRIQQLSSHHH
# [7] = molecular target: T3, Small ubiquitin-related modifier 1; assay: inhibitors of SUMO1 partner interactions, dose response, biochemical, FRET (AID 624383); format: functional; details: read-out: IC50_Mean
# [8] = molecular target: DNA dC->dU-editing enzyme APOBEC-3G (Homo sapiens, UniProt Q9HC16); format: functional;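 also: Dose-response counterscreen measuring inhibition of APOBEC3G DNA deaminase activity, run while confirming APOBEC3A inhibitors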
# [9] = molecular target: T5, Zinc finger protein mex-5 (Caenorhabditis elegans, UniProt Q9XUB2); assay: MEX-5/TCR-2 RNA interaction inhibitors, dose response, biochemical, C. elegans, fluorescence polarization (AID 1960)
# T5 sequence (Q9XUB2 whole entry): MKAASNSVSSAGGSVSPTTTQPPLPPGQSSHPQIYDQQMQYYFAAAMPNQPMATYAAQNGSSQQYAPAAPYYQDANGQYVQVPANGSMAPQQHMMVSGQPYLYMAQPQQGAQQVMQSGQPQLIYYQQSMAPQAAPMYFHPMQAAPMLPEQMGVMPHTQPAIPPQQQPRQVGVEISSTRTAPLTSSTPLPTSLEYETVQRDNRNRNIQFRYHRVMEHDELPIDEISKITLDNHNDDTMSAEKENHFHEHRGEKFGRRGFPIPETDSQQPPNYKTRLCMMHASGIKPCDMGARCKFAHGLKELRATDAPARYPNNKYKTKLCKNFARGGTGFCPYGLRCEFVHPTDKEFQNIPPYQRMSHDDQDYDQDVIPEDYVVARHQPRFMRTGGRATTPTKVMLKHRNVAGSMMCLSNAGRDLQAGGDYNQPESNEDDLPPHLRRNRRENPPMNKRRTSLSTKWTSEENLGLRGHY
# Large T antigen = Large T antigen (Simian virus 40, UniProt P03070); format: functional, Betapolyomavirus macacae;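 also: Confirmatory-stage PubChem screen for compounds that inhibit SV40 T antigen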
# [10] = molecular target: DNA dC->dU-editing enzyme APOBEC-3A (Homo sapiens, UniProt P31941); assay: Dose Response confirmation of small molecule APOBEC3A DNA Deaminase Inhibitors via a fluorescence-based single-stranded DNA deaminase assay. [Related pubchem assays (depositor defined):AID493011, AID493024]; format: functional
# [11] = molecular target: T6, Histone-lysine N-methyltransferase NSD2 (Homo sapiens, UniProt O96028); format: biochemical
# T6 sequence (O96028 whole entry): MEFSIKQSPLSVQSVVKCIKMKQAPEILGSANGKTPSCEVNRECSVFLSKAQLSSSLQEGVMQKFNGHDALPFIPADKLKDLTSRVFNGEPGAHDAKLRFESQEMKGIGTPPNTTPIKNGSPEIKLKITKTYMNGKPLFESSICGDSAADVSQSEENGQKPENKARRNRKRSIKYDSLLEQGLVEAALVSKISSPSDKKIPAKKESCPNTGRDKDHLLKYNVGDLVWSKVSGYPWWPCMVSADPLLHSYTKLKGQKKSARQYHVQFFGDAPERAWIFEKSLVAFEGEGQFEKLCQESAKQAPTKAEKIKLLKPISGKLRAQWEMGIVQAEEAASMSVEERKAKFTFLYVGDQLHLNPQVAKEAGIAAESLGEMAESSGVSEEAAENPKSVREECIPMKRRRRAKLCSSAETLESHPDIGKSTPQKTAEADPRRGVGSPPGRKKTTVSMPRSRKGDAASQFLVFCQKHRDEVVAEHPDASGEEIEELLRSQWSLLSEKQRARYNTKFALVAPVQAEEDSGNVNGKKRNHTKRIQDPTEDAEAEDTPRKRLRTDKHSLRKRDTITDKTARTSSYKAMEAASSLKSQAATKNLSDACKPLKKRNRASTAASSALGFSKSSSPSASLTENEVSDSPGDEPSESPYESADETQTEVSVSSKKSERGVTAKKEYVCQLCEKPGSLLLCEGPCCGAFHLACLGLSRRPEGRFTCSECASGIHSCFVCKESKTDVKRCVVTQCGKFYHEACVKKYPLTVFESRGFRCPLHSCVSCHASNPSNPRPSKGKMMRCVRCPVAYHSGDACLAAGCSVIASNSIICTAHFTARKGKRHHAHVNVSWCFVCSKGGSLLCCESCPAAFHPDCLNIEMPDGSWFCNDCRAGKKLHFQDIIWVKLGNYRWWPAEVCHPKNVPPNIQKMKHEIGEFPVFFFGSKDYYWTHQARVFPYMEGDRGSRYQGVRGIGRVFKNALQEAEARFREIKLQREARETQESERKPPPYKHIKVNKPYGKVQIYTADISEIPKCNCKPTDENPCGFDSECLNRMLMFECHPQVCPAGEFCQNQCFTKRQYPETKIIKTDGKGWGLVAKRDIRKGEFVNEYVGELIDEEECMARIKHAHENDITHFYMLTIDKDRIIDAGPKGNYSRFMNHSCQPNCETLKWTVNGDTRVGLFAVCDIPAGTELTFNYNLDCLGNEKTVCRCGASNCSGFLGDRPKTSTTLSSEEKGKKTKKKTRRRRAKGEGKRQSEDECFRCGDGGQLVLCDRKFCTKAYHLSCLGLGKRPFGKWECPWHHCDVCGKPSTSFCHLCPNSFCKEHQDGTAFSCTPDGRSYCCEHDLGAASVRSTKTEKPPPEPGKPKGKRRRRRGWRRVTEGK
# [12] = HEp-2 cell cytotoxicity, dose response, cytotoxicity control for RSV inhibitor project, HTS (AID 2410); format: functional; details: human respiratory syncytial virus
# [13] = molecular target: Endoplasmic reticulum aminopeptidase 1 (Homo sapiens, UniProt Q9NZ08); assay: ERAP1 aminopeptidase inhibitors, dose response, biochemical, cherry-pick, set 2, plate reader (AID 743314)
# Vero = assay: Vero cell toxicity, dose response, cytotoxicity control, plate reader, cherry-pick samples (AID 687020); format: functional, cell-based; details: Chlorocebus sabaeus
# [14] = T. cruzi growth inhibition in host cells, dose response, cell-based, plate reader, dry powder, set 2 (AID 652275); format: functional
# Cytochrome P450 1A2 = molecular target: T7, Cytochrome P450 1A2 (Homo sapiens, UniProt P05177);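 also: PubChem cytochrome P450 panel assay, CYP1A2 panel member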
# T7 sequence (P05177 whole entry): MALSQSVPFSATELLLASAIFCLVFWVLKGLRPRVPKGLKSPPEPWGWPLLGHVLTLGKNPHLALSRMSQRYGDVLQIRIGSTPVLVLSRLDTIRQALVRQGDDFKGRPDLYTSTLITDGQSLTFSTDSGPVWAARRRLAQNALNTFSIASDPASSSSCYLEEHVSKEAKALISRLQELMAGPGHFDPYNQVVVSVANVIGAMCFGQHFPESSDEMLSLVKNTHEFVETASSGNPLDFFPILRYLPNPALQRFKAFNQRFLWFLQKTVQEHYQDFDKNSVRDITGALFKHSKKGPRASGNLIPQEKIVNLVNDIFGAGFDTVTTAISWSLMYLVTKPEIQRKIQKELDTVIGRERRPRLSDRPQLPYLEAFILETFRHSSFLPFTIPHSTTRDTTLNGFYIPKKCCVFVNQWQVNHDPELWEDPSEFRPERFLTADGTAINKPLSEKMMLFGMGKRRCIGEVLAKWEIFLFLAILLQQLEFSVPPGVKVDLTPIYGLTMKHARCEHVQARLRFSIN
# SN12K1 = assay: cells; format: functional; details: Homo sapiens
# P388 = assay: cells; format: functional; details: Mus musculus
# [15] = molecular target: FAD-linked sulfhydryl oxidase ALR (Homo sapiens, UniProt P55789); assay: inhibitors of human ALR sulfhydryl oxidase, dose response, biochemical, H2O2 detection, luminescence, cherry-pick (AID 493248)
# P388/ADR = assay: cells; format: functional; details: Mus musculus
# Sequence of Endoplasmic reticulum aminopeptidase 1 (Q9NZ08 whole entry): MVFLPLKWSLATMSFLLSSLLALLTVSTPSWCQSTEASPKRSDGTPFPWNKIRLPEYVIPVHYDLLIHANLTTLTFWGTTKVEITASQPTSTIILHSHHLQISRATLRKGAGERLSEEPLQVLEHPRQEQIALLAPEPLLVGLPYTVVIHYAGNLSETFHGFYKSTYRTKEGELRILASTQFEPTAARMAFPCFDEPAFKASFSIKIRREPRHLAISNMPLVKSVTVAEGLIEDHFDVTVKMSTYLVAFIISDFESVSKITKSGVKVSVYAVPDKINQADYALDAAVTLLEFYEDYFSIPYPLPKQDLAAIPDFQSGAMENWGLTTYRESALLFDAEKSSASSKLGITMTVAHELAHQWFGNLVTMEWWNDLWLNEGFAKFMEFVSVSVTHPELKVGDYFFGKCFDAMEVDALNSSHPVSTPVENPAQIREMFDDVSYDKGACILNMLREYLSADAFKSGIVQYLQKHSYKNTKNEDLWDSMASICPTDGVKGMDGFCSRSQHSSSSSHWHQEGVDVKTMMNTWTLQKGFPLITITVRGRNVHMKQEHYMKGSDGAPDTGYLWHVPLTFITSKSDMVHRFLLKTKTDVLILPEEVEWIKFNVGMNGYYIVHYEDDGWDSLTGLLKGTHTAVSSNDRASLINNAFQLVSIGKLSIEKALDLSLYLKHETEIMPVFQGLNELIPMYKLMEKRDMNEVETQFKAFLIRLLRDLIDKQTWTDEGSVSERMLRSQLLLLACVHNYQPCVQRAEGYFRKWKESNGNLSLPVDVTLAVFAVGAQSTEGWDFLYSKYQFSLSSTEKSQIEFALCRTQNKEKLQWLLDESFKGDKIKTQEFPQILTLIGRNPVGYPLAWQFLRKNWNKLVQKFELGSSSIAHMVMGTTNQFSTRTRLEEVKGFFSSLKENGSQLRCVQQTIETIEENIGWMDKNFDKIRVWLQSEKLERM
# Sequence of Beta-galactosidase (Q8VNN2 whole entry): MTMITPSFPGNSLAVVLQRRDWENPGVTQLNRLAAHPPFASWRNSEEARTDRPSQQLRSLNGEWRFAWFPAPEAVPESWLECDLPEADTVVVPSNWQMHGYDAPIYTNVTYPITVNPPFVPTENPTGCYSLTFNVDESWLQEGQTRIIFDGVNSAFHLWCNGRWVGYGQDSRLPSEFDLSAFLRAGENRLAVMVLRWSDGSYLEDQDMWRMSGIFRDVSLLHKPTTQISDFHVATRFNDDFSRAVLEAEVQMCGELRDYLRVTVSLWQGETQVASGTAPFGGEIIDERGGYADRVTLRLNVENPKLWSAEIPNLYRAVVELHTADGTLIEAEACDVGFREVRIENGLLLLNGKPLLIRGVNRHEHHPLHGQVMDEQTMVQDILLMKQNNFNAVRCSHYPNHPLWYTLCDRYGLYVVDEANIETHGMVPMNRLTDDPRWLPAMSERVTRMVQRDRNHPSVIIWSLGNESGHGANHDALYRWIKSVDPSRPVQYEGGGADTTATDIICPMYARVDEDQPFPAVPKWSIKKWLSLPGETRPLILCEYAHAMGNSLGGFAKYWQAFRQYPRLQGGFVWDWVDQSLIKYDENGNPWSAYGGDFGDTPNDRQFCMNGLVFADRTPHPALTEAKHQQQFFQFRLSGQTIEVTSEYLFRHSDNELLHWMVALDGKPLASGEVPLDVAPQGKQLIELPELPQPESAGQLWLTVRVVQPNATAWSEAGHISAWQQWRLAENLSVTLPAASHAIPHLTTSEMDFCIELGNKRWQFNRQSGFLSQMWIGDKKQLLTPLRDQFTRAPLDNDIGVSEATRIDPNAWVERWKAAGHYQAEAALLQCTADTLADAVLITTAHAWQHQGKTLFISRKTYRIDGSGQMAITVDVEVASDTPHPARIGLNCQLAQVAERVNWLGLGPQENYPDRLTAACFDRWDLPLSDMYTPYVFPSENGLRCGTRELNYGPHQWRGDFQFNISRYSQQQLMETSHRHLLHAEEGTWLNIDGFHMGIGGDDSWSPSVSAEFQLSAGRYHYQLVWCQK
# T3 sequence (P63165 whole entry, the tested form may be a part): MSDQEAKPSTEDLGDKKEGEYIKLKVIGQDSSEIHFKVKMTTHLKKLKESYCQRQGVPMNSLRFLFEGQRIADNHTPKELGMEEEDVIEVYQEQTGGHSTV
# Sequence of DNA dC->dU-editing enzyme APOBEC-3A (P31941 whole entry): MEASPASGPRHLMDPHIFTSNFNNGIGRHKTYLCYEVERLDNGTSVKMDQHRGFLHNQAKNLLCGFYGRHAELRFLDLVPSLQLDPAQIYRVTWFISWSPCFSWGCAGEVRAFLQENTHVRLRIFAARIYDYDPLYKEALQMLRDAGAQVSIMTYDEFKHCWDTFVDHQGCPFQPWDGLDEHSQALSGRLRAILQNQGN
# Sequence of DNA dC->dU-editing enzyme APOBEC-3G (Q9HC16 whole entry): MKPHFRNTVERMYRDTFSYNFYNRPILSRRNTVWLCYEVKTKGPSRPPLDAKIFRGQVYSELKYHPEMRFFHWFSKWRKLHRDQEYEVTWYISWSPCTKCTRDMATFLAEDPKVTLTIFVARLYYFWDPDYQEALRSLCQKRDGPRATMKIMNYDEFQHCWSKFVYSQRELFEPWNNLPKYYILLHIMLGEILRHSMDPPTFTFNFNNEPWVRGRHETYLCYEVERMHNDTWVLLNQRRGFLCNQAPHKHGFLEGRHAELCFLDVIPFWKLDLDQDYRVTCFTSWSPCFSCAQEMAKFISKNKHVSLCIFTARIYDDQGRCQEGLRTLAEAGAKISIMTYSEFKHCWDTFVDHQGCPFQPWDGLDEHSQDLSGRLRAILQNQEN
# Sequence of Large T antigen (P03070 whole entry): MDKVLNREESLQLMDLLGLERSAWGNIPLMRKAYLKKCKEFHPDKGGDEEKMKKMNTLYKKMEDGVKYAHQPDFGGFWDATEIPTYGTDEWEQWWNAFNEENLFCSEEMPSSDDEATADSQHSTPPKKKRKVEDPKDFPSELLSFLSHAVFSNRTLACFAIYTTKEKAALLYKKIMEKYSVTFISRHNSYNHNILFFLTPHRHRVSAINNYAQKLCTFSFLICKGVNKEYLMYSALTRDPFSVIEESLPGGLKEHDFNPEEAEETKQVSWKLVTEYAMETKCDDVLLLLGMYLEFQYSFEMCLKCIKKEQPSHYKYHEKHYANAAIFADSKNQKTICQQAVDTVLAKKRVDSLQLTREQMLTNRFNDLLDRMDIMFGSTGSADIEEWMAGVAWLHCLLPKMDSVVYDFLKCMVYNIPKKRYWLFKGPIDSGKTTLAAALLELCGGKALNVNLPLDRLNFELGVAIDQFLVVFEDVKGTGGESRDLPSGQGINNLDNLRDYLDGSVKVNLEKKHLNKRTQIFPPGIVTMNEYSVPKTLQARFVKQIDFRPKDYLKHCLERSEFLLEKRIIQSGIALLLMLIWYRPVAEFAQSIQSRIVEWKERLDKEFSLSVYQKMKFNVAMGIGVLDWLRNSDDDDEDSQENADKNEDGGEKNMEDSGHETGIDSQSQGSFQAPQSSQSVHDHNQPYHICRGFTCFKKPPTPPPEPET
# Sequence of FAD-linked sulfhydryl oxidase ALR (P55789 whole entry): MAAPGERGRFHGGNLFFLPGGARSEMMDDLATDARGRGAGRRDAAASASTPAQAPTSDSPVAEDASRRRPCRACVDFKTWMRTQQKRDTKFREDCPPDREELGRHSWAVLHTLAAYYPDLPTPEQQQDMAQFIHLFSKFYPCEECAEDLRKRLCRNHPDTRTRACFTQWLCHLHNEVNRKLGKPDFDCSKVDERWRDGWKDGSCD
structure (smiles),measurement,setting,value
O=C(c1cc2ccccc2o1)N1CCN(S(=O)(=O)c2ccc(Cl)s2)CC1,IC50,Beta-galactosidase,> 80 µM (inactive)
O=C(O)C1C2CCC(C2)C1C(=O)NCCc1ccc(F)cc1 (configuration not stated),IC50,cells [1],> 29.9 µM (inactive)
same,EC50,cells [2],> 29.9 µM (inactive)
same,IC50,[3],> 29.9 µM (inactive)
same,EC50,[4],14.8 µM (inactive)
Nc1ccc(Nc2ccccc2)c(S(=O)(=O)O)c1,AC50,Caspase-6,1.22 µM (active)
same,IC50,[5],> 66.6 µM (inactive)
same,EC50,[6],108 µM (active)
same,IC50,[7],12.8 µM (active)
same,IC50,[8],34.1 µM (active)
same,EC50,[9],34 µM (active)
same,IC50,Large T antigen,7.15 µM (active)
same,IC50,[10],16.5 µM (active)
same,AC50,[11],8.41 µM (active)
Cc1c(-c2ccccc2)c(=O)oc2cc(O)ccc12,CC50,[12],42.4 µM (active)
same,AC50,[13],4.79 µM (active)
O=C(CSc1nnc(-c2ccc(O)cc2)n1Cc1ccccc1)NNC(=O)c1ccc(Br)cc1,IC50,Beta-galactosidase,> 80 µM (inactive)
O=C(Nc1ccccc1)Nc1ccno1,IC50,cells [1],> 29.9 µM (inactive)
same,EC50,cells [2],> 29.9 µM (inactive)
same,IC50,[3],4.63 µM (active)
same,EC50,[4],4.65 µM (active)
COc1ccc(C(CNC(=O)COc2cc(C)ccc2Cl)N2CCCCC2)cc1 (configuration not stated),AC50,Vero,17.6 µM (active)
COCCNc1nc(Nc2ccccc2Cl)c2sccc2n1,AC50,Vero,6.94 µM (active)
C#CCNC(=O)C[C@@H]1C[C@@]2(C(=O)OC)CCCCC=C2N(Cc2cccc3ccccc23)C1=O,AC50,Vero,36.6 µM (active)
COc1cccc(C(=O)N[C@@H](Cc2cccnc2)C(=O)N2CCC[C@H]2C(=O)NCCc2ccccc2Cl)c1,IC50,cells [1],> 29.9 µM (inactive)
same,EC50,cells [2],> 29.9 µM (inactive)
same,IC50,[3],4.58 µM (active)
same,EC50,[4],2.18 µM (active)
C[C@H]1CN([C@@H](C)CO)C(=O)c2cccc(NC(=O)c3ccncc3)c2O[C@@H]1CN(C)Cc1ccc(F)c(Cl)c1,AC50,[14],0.00198 µM (active)
Cc1cccc(-c2ccc([C@H]3[C@H](CO)N4CCCCN(Cc5cncnc5)C[C@@H]34)cc2)c1,AC50,[14],0.198 µM (active)
CC(C)N1C[C@@H](CNCc2ccc(Oc3ccccc3)cc2)Oc2c(NC(=O)c3ccncc3)cccc2C1=O,AC50,[14],0.00666 µM (active)
COc1cc2ccc(=O)oc2cc1O [SCOPOLETIN],AC50,Cytochrome P450 1A2,5.01 µM (inconclusive)
same,GI50,SN12K1,19.4 µM (inactive)
same,AC50,[13],5.79 µM (active)
same,GI50,P388,5.55 µM (inactive)
same,AC50,[15],4.4 µM (active)
same,GI50,P388/ADR,12.5 µM (inactive)

# From ChEMBL document CHEMBL1201862, “PubChem BioAssay data set” (2004)
